Assay results taken from PubChem BioAssay AID300 (DTP/NCI, 2004).
Several values for one entry are separate records, joined by “and”; a condition that tells them apart may be missing. Equal entries are not always repeated. Records with an inconclusive call do not appear. Rule for the calls: active = survival T/C of 150% or more; inactive = T/C below 125% in these data. *1 amine or outer side, *2 acyl side, *3 side chain or, on linkers, in order; H or OH if unused. Where a SMILES comes first, the peptide text is derived from it. Bridges are numbered along the chain shown (N, C = ends). Roman numbers before positions name the chains, in order. [ ]: non-standard residue; d: D form. Actinocin(9to1) = Cc1c2oc3c(C)ccc(C(=O)[*:1])c3nc-2c(C(=O)[*:2])c(N)c1=O; NMeV = CN[CH](C(=O)O)C(C)C; Sar = CNCC(=O)O

Test system: Madison 109 lung carcinoma i.m., mice, median survival
Experiment: NCI In Vivo Anticancer Drug Screen. Data for tumor model Madison 109 Lung Carcinoma (intramuscular) in unknown mice
Conditions: endpoint: median survival time, higher = longer survival
Method: The antitumor activity of compounds was measured in mice bearing transplantable tumors. Survival or tumor size were measured and the results are expressed as the measurement made in the treated group (T) divided by the measurement made in the vehicle treated control group (C). The tumor model used in this assay is Madison 109 Lung Carcinoma (intramuscular) in unknown mice

[1] = dose: 1.0 mg/kg/injection, schedule: Q01DX009 (ip), vehicle: saline
[2] = dose: 25.0 mg/kg/injection, schedule: Q01DX009 (ip), vehicle: water
[3] = dose: 50.0 mg/kg/injection, schedule: Q01DX009 (ip), vehicle: water
[4] = dose: 0.2 mg/kg/injection, schedule: Q01DX009 (ip), vehicle: saline

Measured: T/C

CC(=O)c1cccc(NC2C(N)C(NC(=O)N(C)C)(C(C)O)C(C)(O)C2(O)COC(=O)c2c(C)cccc2O)c1 (stereo unspecified)
inactive: dose: 0.05 mg/kg/injection, schedule: Q01DX009 (ip), vehicle: other 111 % of control | dose: 0.3 mg/kg/injection, schedule: Q01DX009 (ip), vehicle: other 96 % of control | dose: 0.6 mg/kg/injection, schedule: Q01DX009 (ip), vehicle: other 119 % of control

CC1CCC(NC(=O)N(CCCl)N=O)CC1 (stereo unspecified)
inactive: dose: 0.5 mg/kg/injection, schedule: Q01DX009 (ip), vehicle: saline 100 % of control | [1] 93 % of control | dose: 2.0 mg/kg/injection, schedule: Q01DX001 (ip), vehicle: saline 88 % of control | dose: 2.0 mg/kg/injection, schedule: Q01DX009 (ip), vehicle: saline 95 % of control | dose: 4.0 mg/kg/injection, schedule: Q01DX001 (ip), vehicle: saline 90 % of control | dose: 4.0 mg/kg/injection, schedule: Q01DX009 (ip), vehicle: saline 107 % of control | dose: 8.0 mg/kg/injection, schedule: Q01DX001 (ip), vehicle: saline 93 % of control | dose: 8.0 mg/kg/injection, schedule: Q01DX009 (ip), vehicle: saline 115 % of control | dose: 16.0 mg/kg/injection, schedule: Q01DX001 (ip), vehicle: saline 100 % of control | dose: 32.0 mg/kg/injection, schedule: Q01DX001 (ip), vehicle: saline 106 % of control

O=[N+]([O-])c1ccc(Cl)cc1[N+](=O)[O-]
inactive: dose: 10.0 mg/kg/injection, schedule: Q02DX009 (ip), vehicle: water 121 % of control | dose: 20.0 mg/kg/injection, schedule: Q02DX009 (ip), vehicle: water 118 % of control | dose: 80.0 mg/kg/injection, schedule: Q02DX009 (ip), vehicle: water 119 % of control

NC(=O)c1ncn(C2OC(CO)C(O)C2O)n1 (stereo unspecified)
inactive: dose: 12.5 mg/kg/injection, schedule: Q01DX009 (ip), vehicle: water 103 % of control | [2] 100 % of control | [3] 109 % of control | dose: 100.0 mg/kg/injection, schedule: Q01DX009 (ip), vehicle: water 115 % of control

N[C@@H](Cc1ccc(N(CCCl)CCCl)cc1)C(=O)O
inactive: [4] 102 % of control | dose: 0.4 mg/kg/injection, schedule: Q01DX009 (ip), vehicle: saline 100 % of control | dose: 0.6 mg/kg/injection, schedule: Q01DX009 (ip), vehicle: saline 100 % of control | dose: 0.8 mg/kg/injection, schedule: Q01DX009 (ip), vehicle: saline 111 % of control | [1] 105 % of control

Cc1c2oc3c(C)ccc(C(=O)NC4C(=O)NC(C(C)C)C(=O)N5CCCC5C(=O)N(C)CC(=O)N(C)C(C(C)C)C(=O)OC4C)c3nc-2c(C(=O)NC2C(=O)NC(C(C)C)C(=O)N3CCCC3C(=O)N(C)CC(=O)N(C)C(C(C)C)C(=O)OC2C)c(N)c1=O (stereo unspecified) (I: TVP[Sar][NMeV] / II: TVP[Sar][NMeV]; ester I:1-I:C, II:1-II:C; linker I:N-II:N via Actinocin(9to1); configuration not given here)
inactive: dose: 0.64 mg/kg/injection, schedule: Q01DX009 (ip), vehicle: water 118 % of control | dose: 0.84 mg/kg/injection, schedule: Q01DX009 (ip), vehicle: water 124 % of control

C/C(=N/N=C(N)N)c1ccc(NC(=O)Nc2ccc(/C(C)=N/N=C(N)N)cc2)cc1
inactive: [2] 115 % of control | [3] 106 % of control

c1ccc([C@H]2CN3CCSC3=N2)cc1
inactive: dose: 0.75 mg/kg/injection, schedule: Q01DX009 (ip), vehicle: water 114 % of control | dose: 1.5 mg/kg/injection, schedule: Q01DX009 (ip), vehicle: water 122 % of control | dose: 3.0 mg/kg/injection, schedule: Q01DX009 (ip), vehicle: water 97 % of control | dose: 6.0 mg/kg/injection, schedule: Q01DX009 (ip), vehicle: water 108 % of control

COc1ccc(C[C@H](N)C(=O)NC2C(CO)OC(n3cnc4c(N(C)C)ncnc43)C2O)cc1 (stereo partly specified)
inactive: dose: 10.0 mg/kg/injection, schedule: Q01DX009 (ip), vehicle: water 104 % of control | dose: 20.0 mg/kg/injection, schedule: Q01DX009 (ip), vehicle: water 105 % of control | dose: 40.0 mg/kg/injection, schedule: Q01DX009 (ip), vehicle: water 104 % of control | dose: 80.0 mg/kg/injection, schedule: Q01DX009 (ip), vehicle: water 105 % of control

C1CN1c1nc(N2CC2)nc(N2CC2)n1
inactive: dose: 0.02 mg/kg/injection, schedule: Q01DX009 (ip), vehicle: saline 101 % of control | dose: 0.05 mg/kg/injection, schedule: Q01DX009 (ip), vehicle: saline 110 % of control | dose: 0.1 mg/kg/injection, schedule: Q01DX009 (ip), vehicle: saline 112 % of control | [4] 102 % of control

CC1OC(O[C@H]2/C=C/C=C/C=C/C=C/C=C/C=C/C=C/[C@H](C)[C@@H](O)[C@@H](C)[C@H](C)OC(=O)C[C@H](O)C[C@H](O)CC[C@@H](O)[C@H](O)C[C@H](O)C[C@]3(O)C[C@H](O)[C@@H](C(=O)O)[C@H](C2)O3)C(O)C(N)C1O (stereo partly specified)
inactive: dose: 6.25 mg/kg/injection, schedule: Q01DX009 (ip), vehicle: saline with Tween-80 108 % of control | dose: 12.5 mg/kg/injection, schedule: Q01DX009 (ip), vehicle: saline with Tween-80 118 % of control | dose: 25.0 mg/kg/injection, schedule: Q01DX009 (ip), vehicle: saline with Tween-80 88 % of control | dose: 50.0 mg/kg/injection, schedule: Q01DX009 (ip), vehicle: saline with Tween-80 110 % of control | dose: 100.0 mg/kg/injection, schedule: Q01DX009 (ip), vehicle: saline with Tween-80 93 % of control

COc1cccc2c1C(=O)c1c(O)c3c(c(O)c1C2=O)CC(O)(C(=O)CO)CC3OC1CC(N)C(O)C(C)O1 (stereo unspecified)
inactive: dose: 5.5 mg/kg/injection, schedule: Q01DX005 (ip), vehicle: water 100 % of control | dose: 52.5 mg/kg/injection, schedule: Q01DX005 (ip), vehicle: water 102 % of control

O=C1OC(C(O)CO)C(O)=C1O (stereo unspecified)
inactive: dose: 400.0 mg/kg/injection, schedule: Q01DX009 (ip), vehicle: other 98 % of control | dose: 800.0 mg/kg/injection, schedule: Q01DX009 (ip), vehicle: other 96 % of control | dose: 1600.0 mg/kg/injection, schedule: Q01DX009 (ip), vehicle: other 98 % of control

COC1=C(N)C(=O)c2nc(-c3nc(C(=O)O)c(C)c(-c4ccc(OC)c(OC)c4O)c3N)ccc2C1=O
inactive: dose: 2.0 micrograms/kg/injection, schedule: Q01DX009 (ip), vehicle: other 102 % of control | dose: 5.0 micrograms/kg/injection, schedule: Q01DX009 (ip), vehicle: other 103 % of control and 111 % of control | dose: 10.0 micrograms/kg/injection, schedule: Q01DX009 (ip), vehicle: other 106 % of control and 116 % of control | dose: 20.0 micrograms/kg/injection, schedule: Q01DX009 (ip), vehicle: other 115 % of control and 117 % of control | dose: 30.0 micrograms/kg/injection, schedule: Q01DX009 (ip), vehicle: other 109 % of control
